# Several values for one entry are separate records, joined by “and”; a condition that tells them apart may be missing. Identical values can stand only once. Like-named read-outs stand apart in the source and are kept apart here. Ends that are not written are not given here.
# What was measured:
# [1] = tested on: E. coli (ATCC 25922)
# [2] = tested on: S. aureus (ATCC 25923)
# [3] = tested on: E. coli KpC+1812446; format: in vivo, mice; conditions: for in vivo toxicity: infected Balb/C mice, 5 and 10 mg·Kg^−1
# Description: Male Balb/C (18-20 g) mice from the Biotério Central do Campus da USP in Ribeirão Preto, São Paulo, were kept in groups of 5 per cage at 22° C. with normal cycles of light and free access to food and water. The care and use of the animals were approved by the Ethics Committee of Universidade Católica Dom Bosco number 019/2016. We assessed the ability of the peptides to protect the mice from lethal systemic infections induced with E. coli KpC+1812446. The mice (n=40) were randomly placed into eight groups of five mice each, and each mouse was injected intraperitoneally with 200 μL of saline solution containing 2×10^7 CFU of E. coli KpC+1812446. Intraperitoneal treatment with 5 or 10 mg·Kg^−1 of each peptide was initiated after one hour of infection and repeated at 24 h intervals for seven days^61. Gentamicin at 10 mg·Kg^−1 of body weight and normal saline were used as positive and negative controls, respectively.
# [4] = tested on: E. coli (KpC+ 1812446); conditions: MH broth, 12 h, 37° C.
# [5] = tested on: E. coli (KpC+ 2101123); conditions: for MIC in Cu(II) supplemented medium: Cu(II) supplemented medium (0.25 μM); for MIC: MH broth, 12 h, 37° C.
# [6] = tested on: K. pneumoniae (KpC+ 1825971); conditions: for MIC in Cu(II) supplemented medium: Cu(II) supplemented medium (0.25 μM); for MIC: MH broth, 12 h, 37° C.
# [7] = tested on: K. pneumoniae (ATCC 13883)
# [8] = tested on: P. aeruginosa (ATCC 27853)
# [9] = tested on: MRSA (3730529)
# [10] = tested on: E. coli MG1655
# [11] = tested on: E. coli (KpC1812446); conditions: Table 3, agent alone
# [12] = tested on: E. coli (ATCC25922); conditions: Table 3, agent alone
# [13] = tested on: K. pneumoniae (ATCC13883)
# [14] = tested on: K. pneumoniae (KpC1825971); conditions: Table 3, agent alone
# [15] = tested on: E. coli (KpC1812446); conditions: agent alone, BM2 minimal medium
# [16] = tested on: E. coli (ATCC 25922); conditions: agent alone, BM2 minimal medium
# [17] = tested on: K. pneumoniae (ATCC13883); remark: listed apart in the source
# [18] = tested on: K. pneumoniae (KpC1825971); conditions: agent alone, BM2 minimal medium
# [19] = tested on: E. coli (KpC+1812446) planktonic cells; conditions: for FICI: Planktonic; for MBIC Antibiotic alone / MBIC Antibiotic + Peptide: Table 8, planktonic cells
# [20] = tested on: E. coli (KpC+1812446) biofilm; conditions: for FICI: Biofilm; for MBIC Antibiotic alone / MBIC Antibiotic + Peptide: Table 7, biofilm
# [21] = tested on: E. coli (KpC1812446); experiment: microbe, parasite or virus in culture; conditions: Escherichia coli
# [22] = tested on: K. pneumoniae (ATCC13883); experiment: microbe, parasite or virus in culture; conditions: Klebsiella pneumoniae
# [23] = Cu(II) in MH broth, determined in our laboratory
# [24] = Cu(II) supplemented medium (0.25 μM)
# [25] = agent alone, BM2 minimal medium
# [26] = antibiotic in combination with CM15
# [27] = antibiotic in combination with GGH-CM15
# [28] = antibiotic in combination with VIH-CM15
compound,measurement,setting,value
"O.O.O.O.O.O=S(=O)([O-])[O-].[Cu+2] [Cu(II) ions, CuSO4·5H2O]",toxic level,[1]; [23],7.8 mM
same,toxic level,[2]; [23],7.8 mM
VIHKWKLFKKIGAVLKVL [VIH-CM15],in vivo toxicity,[3],decreased the toxicity of CM15
same,MIC in Cu(II) supplemented medium,[1]; [24],1 µM
same,MIC,"[1]; MH broth, 12 h, 37° C.",1 µM
same,MIC,[4],4 µM
same,MIC in Cu(II) supplemented medium,[5],2 µM
same,MIC,[5],2 µM
same,MIC in Cu(II) supplemented medium,[6],1 µM
same,MIC,[6],1 µM
same,MIC,"[7]; MH broth, 12 h, 37° C.",1 µM
same,MIC,"[8]; MH broth, 12 h, 37° C.",4 µM
same,MIC,"[9]; MH broth, 12 h, 37° C.",2 µM
same,MIC in Cu(II) supplemented medium,[2]; [24],1 µM
same,MIC,"[2]; MH broth, 12 h, 37° C.",1 µM
same,"MIC, TETA",[10]; cell-impermeable Cu(II) chelator triethylenetetramine (TETA) 200 μM,1 µM
same,"MIC, TTM",[10]; cell-permeable Cu(II) chelator tetrathiolmolybdate (TTM) 200 μM,32 µM
same,"MIC, No Chelator",[10]; no chelator,0.5 µM
same,MIC,[11],4 µM
same,MIC,[12],4 µM
same,MIC,"[13]; Table 3, agent alone",30 µM
same,MIC,[14],8 µM
same,MBIC,[15],8 µM
same,MBIC,[16],4 µM
same,MBIC,[17]; [25],>30 µM
same,MBIC,[18],4 µM
same,FICI,[19]; peptide + AmP,2.0
same,FICI,[19]; peptide + CHL,1.0 and 1.002
same,FICI,[19]; peptide + MER,1.0
same,FICI,[19]; peptide + STR,1.29
same,FICI,[19]; peptide + TRI,1.0
same,FICI,[20]; peptide + AmP,1.5
same,FICI,[20]; peptide + CHL,1.38
same,FICI,[20]; peptide + MER,0.185 and 0.19
same,FICI,[20]; peptide + STR,1.0
same,FICI,[20]; peptide + TRI,1.0
"CC1(C)S[C@@H]2[C@H](NC(=O)[C@H](N)c3ccccc3)C(=O)N2[C@H]1C(=O)O [AmP, ampicillin]",MBIC,[15],>183 µM
same,MBIC,[17]; [25],>183 µM
same,MBIC Antibiotic alone,[19],366 µM
same,MBIC Antibiotic + Peptide,[19]; [26],366 µM
same,MBIC Antibiotic + Peptide,[19]; [27],366 µM
same,MBIC Antibiotic + Peptide,[19]; [28],366 µM
same,MBIC Antibiotic alone,[20],366 µM
same,MBIC Antibiotic + Peptide,[20]; [26],366 µM
same,MBIC Antibiotic + Peptide,[20]; [27],366 µM
same,MBIC Antibiotic + Peptide,[20]; [28],366 µM
same,MIC,[21],> 183 µM
same,MIC,[22],> 183 µM
"O=C(N[C@H](CO)[C@H](O)c1ccc([N+](=O)[O-])cc1)C(Cl)Cl [CHL, chloramphenicol]",MBIC,[15],>198 µM
same,MBIC,[17]; [25],>198 µM
same,MBIC Antibiotic alone,[19],396 µM
same,MBIC Antibiotic + Peptide,[19]; [26],0.8 µM
same,MBIC Antibiotic + Peptide,[19]; [27],3 µM
same,MBIC Antibiotic + Peptide,[19]; [28],0.8 µM
same,MBIC Antibiotic alone,[20],396 µM
same,MBIC Antibiotic + Peptide,[20]; [26],396 µM
same,MBIC Antibiotic + Peptide,[20]; [27],396 µM
same,MBIC Antibiotic + Peptide,[20]; [28],396 µM
same,MIC,[21],> 198 µM
same,MIC,[22],> 198 µM
"GLFDVIKKVASVIGGL-NH2 [Citropin1.1, GLFDVIKKVASVIGGL-NH2, reference compound]",MIC in Cu(II) supplemented medium,[1]; ATCC 25922,10 µM
same,MIC,"[1]; ATCC 25922, 12 h",10 µM
same,MIC,[4],10 µM
same,MIC in Cu(II) supplemented medium,[5],5 µM
same,MIC,[5],5 µM
same,MIC in Cu(II) supplemented medium,[6],20 µM
same,MIC,[6],20 µM
same,MIC,"[7]; ATCC 13883, 12 h",20 µM
same,MIC,"[8]; ATCC 27853, 12 h",>40 µM
same,MIC,"[9]; 3730529, 12 h",10 µM
same,MIC in Cu(II) supplemented medium,[2]; ATCC 25923,3 µM
same,MIC,"[2]; ATCC 25923, 12 h",3 µM
same,MIC,[11],>40 µM
same,MIC,[13]; ATCC13883,>40 µM
same,MBIC,[15],>40 µM
same,MBIC,[17]; ATCC13883,>40 µM
"[H]/N=C(/N)N[C@H]1[C@H](O)[C@@H](O)[C@H](O[C@@H]2O[C@@H](C)[C@](O)(C=O)[C@H]2O[C@@H]2O[C@@H](CO)[C@H](O)[C@@H](O)[C@@H]2NC)[C@@H](N/C(N)=N\[H])[C@@H]1O [STR, streptomycin]",MBIC,[15],14 µM
same,MBIC,[17]; [25],>110 µM
same,MBIC Antibiotic alone,[19],14 µM
same,MBIC Antibiotic + Peptide,[19]; [26],4 µM
same,MBIC Antibiotic + Peptide,[19]; [27],14 µM
same,MBIC Antibiotic + Peptide,[19]; [28],0.4 µM
same,MBIC Antibiotic alone,[20],14 µM
same,MBIC Antibiotic + Peptide,[20]; [26],4 µM
same,MBIC Antibiotic + Peptide,[20]; [27],4 µM
same,MBIC Antibiotic + Peptide,[20]; [28],7 µM
same,MIC,[21],14 µM
same,MIC,[22],> 110 µM
VIHGLFDVIKKVASVIGGL-NH2 [VIH-Citropin1.1],MIC in Cu(II) supplemented medium,[1]; ATCC 25922,>33 µM
same,MIC,"[1]; ATCC 25922, 12 h",>33 µM
same,MIC,[4],33 µM
same,MIC in Cu(II) supplemented medium,[5],16 µM
same,MIC,[5],16 µM
same,MIC in Cu(II) supplemented medium,[6],>33 µM
same,MIC,[6],>33 µM
same,MIC,"[7]; ATCC 13883, 12 h",>33 µM
same,MIC,"[8]; ATCC 27853, 12 h",>33 µM
same,MIC,"[9]; 3730529, 12 h",16 µM
same,MIC in Cu(II) supplemented medium,[2]; ATCC 25923,4 µM
same,MIC,"[2]; ATCC 25923, 12 h",4 µM
same,MIC,[11],>33 µM
same,MIC,[13]; ATCC13883,>33 µM
same,MBIC,[15],>33 µM
same,MBIC,[17]; ATCC13883,>33 µM
"COc1cc(Cc2cnc(N)nc2N)cc(OC)c1OC [TRI, trimethoprim]",MBIC,[15],>220 µM
same,MBIC,[17]; [25],>220 µM
same,MBIC Antibiotic alone,[19],440 µM
same,MBIC Antibiotic + Peptide,[19]; [26],55 µM
same,MBIC Antibiotic + Peptide,[19]; [27],110 µM
same,MBIC Antibiotic + Peptide,[19]; [28],220 µM
same,MBIC Antibiotic alone,[20],440 µM
same,MBIC Antibiotic + Peptide,[20]; [26],440 µM
same,MBIC Antibiotic + Peptide,[20]; [27],220 µM
same,MBIC Antibiotic + Peptide,[20]; [28],220 µM
same,MIC,[21],> 220 µM
same,MIC,[22],> 220 µM
"KWKLFKKIGAVLKVL [CM15, KWKLFKKIGAVLKVL, reference compound]",mouse deaths,[3]; 10 mg·Kg^−1 intraperitoneal,led to mouse deaths after two days of treatment
same,in vivo toxicity,[3],high in vivo toxicity
GGHGLFDVIKKVASVIGGL-NH2 [GGH-Citropin1.1],MIC in Cu(II) supplemented medium,[1]; ATCC 25922,34 µM
same,MIC,"[1]; ATCC 25922, 12 h",34 µM
same,MIC,[4],34 µM
same,MIC in Cu(II) supplemented medium,[5],9 µM
same,MIC,[5],9 µM
same,MIC in Cu(II) supplemented medium,[6],>34 µM
same,MIC,[6],>34 µM
same,MIC,"[7]; ATCC 13883, 12 h",34 µM
same,MIC,"[8]; ATCC 27853, 12 h",>34 µM
same,MIC,"[9]; 3730529, 12 h",17 µM
same,MIC in Cu(II) supplemented medium,[2]; ATCC 25923,9 µM
same,MIC,"[2]; ATCC 25923, 12 h",9 µM
same,MIC,[11],>34 µM
same,MIC,[13]; ATCC13883,>34 µM
same,MBIC,[15],>34 µM
same,MBIC,[17]; ATCC13883,>34 µM
"C[C@@H](O)[C@H]1C(=O)N2C(C(=O)O)=C(S[C@@H]3CN[C@H](C(=O)N(C)C)C3)[C@H](C)[C@H]12 [MER, meropenem]",MBIC,[15],0.6 µM
same,MBIC,[17]; [25],>167 µM
same,MBIC Antibiotic alone,[19],0.6 µM
same,MBIC Antibiotic + Peptide,[19]; [26],0.6 µM
same,MBIC Antibiotic + Peptide,[19]; [27],0.16 µM
same,MBIC Antibiotic + Peptide,[19]; [28],0.3 µM
same,MBIC Antibiotic alone,[20],0.6 µM
same,MBIC Antibiotic + Peptide,[20]; [26],0.16 µM
same,MBIC Antibiotic + Peptide,[20]; [27],0.013 µM
same,MBIC Antibiotic + Peptide,[20]; [28],0.04 µM
same,MIC,[21],0.6 µM
same,MIC,[22],> 167 µM

# Source: patent publication US20260226105A1, “Antimicrobial And Antibiofilm Peptides Sequences With Metal-Binding Motifs” (The Trustee of the University of Pennsylvania, priority 2021, published 2026)
